Structures are written as SMILES. Values joined by “and” are separate entries in the source; they are usually repeats but may differ in a detail not shown here. Identical values can stand only once. Results filed as inconclusive are left out.

The subject of the assay is C3AKF1 mice, osteogenic sarcoma HE10734 s.c., tumor weight T/C. As to the kind of experiment: NCI In Vivo Anticancer Drug Screen. Data for tumor model Osteogenic Sarcoma HE 10734 (subcutaneous) in C3AKF1 (CHKRF1) mice. The following applies: endpoint: mean tumor weight, schedule: Q01DX010 (ip), higher = larger tumour. The method, then: The antitumor activity of compounds was measured in mice bearing transplantable tumors. Survival or tumor size were measured and the results are expressed as the measurement made in the treated group (T) divided by the measurement made in the vehicle treated control group (C). The tumor model used in this assay is Osteogenic Sarcoma HE 10734 (subcutaneous) in C3AKF1 (CHKRF1) mice

The mark [1] stands for this setting: dose: 31.0 mg/kg/injection, vehicle: saline.
[2] abbreviates: dose: 62.0 mg/kg/injection, vehicle: saline.
The mark [3] stands for this setting: dose: 125.0 mg/kg/injection, vehicle: saline.
[4] abbreviates: dose: 25.0 mg/kg/injection, vehicle: saline.
[5] abbreviates: dose: 50.0 mg/kg/injection, vehicle: saline.
Setting [6] is: dose: 100.0 mg/kg/injection, vehicle: saline.
Where [7] appears, read: dose: 200.0 mg/kg/injection, vehicle: saline.
The mark [8] stands for this setting: dose: 200.0 mg/kg/injection, vehicle: carboxymethylcellulose (CMC).
[9] abbreviates: dose: 12.0 mg/kg/injection, vehicle: saline.
Setting [10] is: dose: 12.5 mg/kg/injection, vehicle: carboxymethylcellulose (CMC).
Where [11] appears, read: dose: 25.0 mg/kg/injection, vehicle: carboxymethylcellulose (CMC).

Regarding `O=c1n(CCCl)c(=O)n(CCCl)c(=O)n1CCCl`, the T/C was 81 % of control under setting [1]; 83 % of control under setting [2]; 75 % of control under setting [3]; 116 % of control (dose: 370.0 mg/kg/injection, vehicle: saline).

On to `c1cc2n(n1)CCN2`, for which the T/C (dose: 30.0 mg/kg/injection, vehicle: saline) was 100 % of control; the T/C (dose: 60.0 mg/kg/injection, vehicle: saline) is 68 % of control; the T/C (dose: 120.0 mg/kg/injection, vehicle: saline) is 40 % of control.

As for `CCCCCCCCCCCCCS`, the T/C was 76 % of control under setting [4], 87 % of control under setting [5], 82 % of control under setting [6] and 89 % of control under setting [7].

In the case of `CC(/C=N/N=C(N)N)=N/N=C(N)N`, the T/C (dose: 12.5 mg/kg/injection, vehicle: saline) was 85 % of control and the T/C under setting [4] is 63 % of control.

Turning to `CCCCSc1nc(N)nc2c1ncn2CC(C)CC` (centres undefined), the T/C is 109 % of control under setting [6] and 57 % of control under setting [7].

Consider `C=CCn1c(=O)n(CC=C)c(=O)n(CC=C)c1=O`, for which the T/C under setting [1] was 84 % of control; the T/C under setting [2] is 94 % of control; the T/C under setting [3] is 69 % of control; the T/C (dose: 375.0 mg/kg/injection, vehicle: saline) was 31 % of control.

Take `c1ccc(CSc2ncnc3nc[nH]c23)nc1`: the T/C was 76 % of control and 81 % of control under setting [5]; 29 % of control and 39 % of control under setting [6].

On to `CC(C)CCSc1nc(N)nc2nc[nH]c12`, for which the T/C by setting is: under setting [2], 64 % of control; under setting [3], 75 % of control.

Consider `O=C(O)c1ccc(-c2ccccc2)cc1`, for which the T/C under setting [8] is 70 % of control.

As to `CCC[CH2][Sn]([CH2]CCC)([CH2]CCC)[O]C(=O)CC[S][Sn]([CH2]CCC)([CH2]CCC)[CH2]CCC`, the T/C was 124 % of control (dose: 0.75 mg/kg/injection, vehicle: saline); 90 % of control (dose: 1.5 mg/kg/injection, vehicle: saline); 72 % of control (dose: 6.0 mg/kg/injection, vehicle: saline); 89 % of control under setting [9]; 30 % of control (dose: 24.0 mg/kg/injection, vehicle: saline).

For `Cc1nc(N)nc(N)c1-c1ccc(Cl)c(Cl)c1`, the T/C (dose: 0.09 mg/kg/injection, vehicle: carboxymethylcellulose (CMC)) was 94 % of control; the T/C (dose: 0.18 mg/kg/injection, vehicle: carboxymethylcellulose (CMC)) is 103 % of control; the T/C (dose: 0.37 mg/kg/injection, vehicle: carboxymethylcellulose (CMC)) was 88 % of control; the T/C (dose: 1.5 mg/kg/injection, vehicle: carboxymethylcellulose (CMC)) was 21 % of control.

Consider `CCCCCCCCCCCCCCCCC(C(=O)O)C(O)(CC(=O)O)C(=O)O` (centres undefined), for which the T/C (dose: 22.0 mg/kg/injection, vehicle: carboxymethylcellulose (CMC)) was 100 % of control and the T/C (dose: 35.0 mg/kg/injection, vehicle: carboxymethylcellulose (CMC)) was 68 % of control.

Consider `S=C(N=Nc1ccccc1)NNc1ccccc1`, for which the T/C by setting is: (dose: 45.0 mg/kg/injection, vehicle: carboxymethylcellulose (CMC)) 95 % of control; (dose: 65.0 mg/kg/injection, vehicle: carboxymethylcellulose (CMC)) 49 % of control.

For `COc1cc([C@@H]2c3cc4c(cc3[C@H](O)[C@H]3COC(=O)[C@@H]23)OCO4)cc(OC)c1OC`, the T/C (dose: 7.0 mg/kg/injection, vehicle: saline) was 75 % of control.

With `CCCn1cnc2c(SCc3ccccc3Cl)nc(N)nc21`, the T/C is 86 % of control (dose: 100.0 mg/kg/injection, vehicle: carboxymethylcellulose (CMC)); 87 % of control under setting [8]; 55 % of control (dose: 400.0 mg/kg/injection, vehicle: carboxymethylcellulose (CMC)).

For the compound `CSc1ncnc2c1ncn2C1CCCO1` (centres undefined), the T/C was 76 % of control (dose: 20.0 mg/kg/injection, vehicle: saline); 83 % of control (dose: 40.0 mg/kg/injection, vehicle: saline); 44 % of control (dose: 160.0 mg/kg/injection, vehicle: saline).

Consider `Nc1nc(SCc2ccccc2Cl)c2ncn(C3OC(CO)C(O)C3O)c2n1` (centres undefined), for which the T/C is 90 % of control under setting [10]; 81 % of control under setting [11]; 61 % of control (dose: 50.0 mg/kg/injection, vehicle: carboxymethylcellulose (CMC)).

In the case of `O=P1(N(CCCl)CCCl)NCCCO1` (centres undefined), the T/C was 172 % of control (dose: 3.6 mg/kg/injection, vehicle: saline); 151 % of control (dose: 5.5 mg/kg/injection, vehicle: saline); 93 % of control (dose: 8.3 mg/kg/injection, vehicle: saline); 22 % of control under setting [4]; 5 % of control under setting [5]; 2 % of control under setting [6].

Consider `Nc1ccc2ccccc2c1N=Nc1ccccc1`, for which the T/C is 101 % of control (dose: 62.5 mg/kg/injection, vehicle: carboxymethylcellulose (CMC)); 100 % of control (dose: 125.0 mg/kg/injection, vehicle: carboxymethylcellulose (CMC)); 65 % of control (dose: 250.0 mg/kg/injection, vehicle: carboxymethylcellulose (CMC)); 41 % of control (dose: 500.0 mg/kg/injection, vehicle: carboxymethylcellulose (CMC)).

`CCOC(=O)Sc1ncnc2nc[nH]c12`: the T/C (dose: 112.0 mg/kg/injection, vehicle: carboxymethylcellulose (CMC)) is 13 % of control.

For the compound `O=C(NO)c1ccncc1`, the T/C under setting [3] was 113 % of control; the T/C (dose: 250.0 mg/kg/injection, vehicle: saline) is 123 % of control; the T/C (dose: 500.0 mg/kg/injection, vehicle: saline) is 102 % of control.

Take `CCOc1ccc(Nc2ncnc3nc[nH]c23)cc1CN(CCCl)CCCl`: the T/C by setting is: (dose: 1.0 mg/kg/injection, vehicle: carboxymethylcellulose (CMC)) 86 % of control; (dose: 4.0 mg/kg/injection, vehicle: carboxymethylcellulose (CMC)) 94 % of control; (dose: 8.0 mg/kg/injection, vehicle: carboxymethylcellulose (CMC)) 83 % of control and 95 % of control.

As to `Cc1ccc(N2CCN(CCCN3CCN(c4ccc(Cl)cc4)CC3)CC2)cc1`, the T/C is, setting by setting: (dose: 6.25 mg/kg/injection, vehicle: carboxymethylcellulose (CMC)) 97 % of control; under setting [10], 77 % of control; under setting [11], 102 % of control.

With `S=c1c2[nH]cnc2ncn1CCSC1=NC=NC2=NC=NC21` (centres undefined), the T/C reads like this: under setting [5], 81 % of control; under setting [7], 35 % of control; (dose: 400.0 mg/kg/injection, vehicle: saline) 29 % of control.

As to `CN(C)CCCN1c2ccccc2Sc2ccc(C(F)(F)F)cc21`, the T/C by setting is: under setting [9], 90 % of control; under setting [4], 90 % of control.

Consider `CCCCn1cnc2c(SC)nc(N)nc21`, for which the T/C was 69 % of control (dose: 30.0 mg/kg/injection, vehicle: carboxymethylcellulose (CMC)) and 71 % of control (dose: 115.0 mg/kg/injection, vehicle: carboxymethylcellulose (CMC)).

Source of the values: PubChem BioAssay AID310 (DTP/NCI, 2004).
